For this assay, the target named is T1, P-glycoprotein (Homo sapiens, UniProt P08183).
T1 construct: gene ABCB1
The assay can be described thus: Rhodamine-123 accumulation kinetics (Lineweaver-Burk) and bidirectional transport in MDCK-hMDR1 cells. The format is cell-based.

T1 sequence (P08183 whole entry): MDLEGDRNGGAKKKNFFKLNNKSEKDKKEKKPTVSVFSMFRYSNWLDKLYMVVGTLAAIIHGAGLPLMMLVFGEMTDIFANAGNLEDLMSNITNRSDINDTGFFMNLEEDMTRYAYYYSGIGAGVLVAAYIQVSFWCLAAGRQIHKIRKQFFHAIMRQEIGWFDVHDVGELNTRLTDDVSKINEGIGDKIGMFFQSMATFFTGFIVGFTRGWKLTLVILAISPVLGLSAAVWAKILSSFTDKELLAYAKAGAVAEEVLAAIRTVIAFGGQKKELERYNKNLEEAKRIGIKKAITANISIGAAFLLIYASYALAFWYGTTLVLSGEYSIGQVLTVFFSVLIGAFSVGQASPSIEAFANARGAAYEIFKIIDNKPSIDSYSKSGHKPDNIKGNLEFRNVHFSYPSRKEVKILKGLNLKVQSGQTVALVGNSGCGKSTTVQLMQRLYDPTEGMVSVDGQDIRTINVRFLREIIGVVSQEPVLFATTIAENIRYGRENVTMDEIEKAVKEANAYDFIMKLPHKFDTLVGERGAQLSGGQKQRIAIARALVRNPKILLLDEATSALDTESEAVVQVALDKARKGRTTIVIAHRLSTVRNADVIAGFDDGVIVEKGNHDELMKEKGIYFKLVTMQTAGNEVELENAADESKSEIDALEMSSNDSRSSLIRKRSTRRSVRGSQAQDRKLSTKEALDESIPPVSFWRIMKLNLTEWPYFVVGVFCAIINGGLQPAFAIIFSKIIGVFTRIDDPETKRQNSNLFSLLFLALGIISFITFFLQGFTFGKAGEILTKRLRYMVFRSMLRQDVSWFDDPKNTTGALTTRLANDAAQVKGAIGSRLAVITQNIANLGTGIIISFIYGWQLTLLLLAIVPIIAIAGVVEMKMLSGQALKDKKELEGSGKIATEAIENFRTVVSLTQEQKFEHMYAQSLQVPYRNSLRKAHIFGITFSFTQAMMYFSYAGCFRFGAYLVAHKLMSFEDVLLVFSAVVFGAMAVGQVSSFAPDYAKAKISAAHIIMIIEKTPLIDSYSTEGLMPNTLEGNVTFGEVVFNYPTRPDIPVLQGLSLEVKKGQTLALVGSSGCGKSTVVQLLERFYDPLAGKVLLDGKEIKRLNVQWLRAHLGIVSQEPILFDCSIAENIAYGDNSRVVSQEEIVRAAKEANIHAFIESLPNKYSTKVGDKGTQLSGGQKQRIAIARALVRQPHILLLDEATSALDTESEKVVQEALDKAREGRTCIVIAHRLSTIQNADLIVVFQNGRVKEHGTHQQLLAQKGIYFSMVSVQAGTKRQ

Consider `O=C1c2c(O)cc(O)cc2O[C@H](c2ccc(O)cc2)[C@@H]1[C@@H]1C(=O)c2c(O)cc(O)cc2O[C@H]1c1ccc(O)cc1` [NCB, Neochamaejasmin B], for which the Ki (as a rule, the equilibrium dissociation constant of an inhibitor or competing ligand from its target) stood at 45.2 µM.

Values taken from PMC6272504, “Inhibitory Effects of Neochamaejasmin B on P-Glycoprotein in MDCK-hMDR1 Cells and Molecular Docking of NCB Binding in P-Glycoprotein” (Molecules, 2015).
